{"source": "paper PMC7363796", "about": "“Blood pressure-lowering effects of a Bowman-Birk inhibitor and its derived peptides in normotensive and hypertensive rats” (Scientific Reports, 2020)", "key": {"chymotrypsin [1]": {"biological_target": "T1, chymotrypsin (Bos taurus, UniProt P00766)", "assay": "Inhibition of chymotrypsin, residual activity with GPNA substrate", "format": "biochemical", "conditions": "pH 7.6, from fitted inhibition curves (GRAFIT), read-out: Inhibition constant Ki against chymotrypsin", "description": "(§1) The inhibitory activities of BTCI, PepTry and PepChy against trypsin and chymotrypsin activities were assayed using the substrates Na-benzoyl-DL-arginine-p-nitroanilide (BAPNA) and n-glutaryl-L-phenylalanine-p-nitroanilide (GPNA), respectively (Sigma)[19],[39]. Enzymatic assays were performed in 50 mM Tris-HCl, CaCl2 20 mM pH 7.6 for chymotrypsin or pH 8.2 for trypsin. Forty μL of BTCI and PepTry (0 to 20 μM) and BTCI and PepChy (0 to 50 μM) were incubated with 40 μL of trypsin (2.57 µM) or chymotrypsin (28.60 µM), respectively, in a 96-well plate at room temperature for 15 minutes. Then, 200 μL BAPNA (0.064 mg/mL) or GPNA (0.8 mg/mL) were added. The reaction was stopped by addition of 30 μL 30% acetic acid (v/v). Enzymatic hydrolysis of the substrate was evaluated by recording the absorbance at 410 nm. The residual activities of the enzymes, in the presence of inhibitors, were estimated considering the free enzyme activity to be 100%. Inhibition constants of the enzyme-inhibitor complexes, Ki, were calculated from fitted inhibition curves[70] using the GRAFIT program version 3 (Erithacus Software, Horley, Surrey, United Kingdom)."}, "[2]": {"biological_target": "T2, angiotensin converting enzyme (ACE) (Oryctolagus cuniculus, UniProt P12822)", "T2 construct": "ACE stock solution was obtained from rabbit lung; from tissue; host or cells: rabbit lung", "T2 sequence (P12822 34-1310)": "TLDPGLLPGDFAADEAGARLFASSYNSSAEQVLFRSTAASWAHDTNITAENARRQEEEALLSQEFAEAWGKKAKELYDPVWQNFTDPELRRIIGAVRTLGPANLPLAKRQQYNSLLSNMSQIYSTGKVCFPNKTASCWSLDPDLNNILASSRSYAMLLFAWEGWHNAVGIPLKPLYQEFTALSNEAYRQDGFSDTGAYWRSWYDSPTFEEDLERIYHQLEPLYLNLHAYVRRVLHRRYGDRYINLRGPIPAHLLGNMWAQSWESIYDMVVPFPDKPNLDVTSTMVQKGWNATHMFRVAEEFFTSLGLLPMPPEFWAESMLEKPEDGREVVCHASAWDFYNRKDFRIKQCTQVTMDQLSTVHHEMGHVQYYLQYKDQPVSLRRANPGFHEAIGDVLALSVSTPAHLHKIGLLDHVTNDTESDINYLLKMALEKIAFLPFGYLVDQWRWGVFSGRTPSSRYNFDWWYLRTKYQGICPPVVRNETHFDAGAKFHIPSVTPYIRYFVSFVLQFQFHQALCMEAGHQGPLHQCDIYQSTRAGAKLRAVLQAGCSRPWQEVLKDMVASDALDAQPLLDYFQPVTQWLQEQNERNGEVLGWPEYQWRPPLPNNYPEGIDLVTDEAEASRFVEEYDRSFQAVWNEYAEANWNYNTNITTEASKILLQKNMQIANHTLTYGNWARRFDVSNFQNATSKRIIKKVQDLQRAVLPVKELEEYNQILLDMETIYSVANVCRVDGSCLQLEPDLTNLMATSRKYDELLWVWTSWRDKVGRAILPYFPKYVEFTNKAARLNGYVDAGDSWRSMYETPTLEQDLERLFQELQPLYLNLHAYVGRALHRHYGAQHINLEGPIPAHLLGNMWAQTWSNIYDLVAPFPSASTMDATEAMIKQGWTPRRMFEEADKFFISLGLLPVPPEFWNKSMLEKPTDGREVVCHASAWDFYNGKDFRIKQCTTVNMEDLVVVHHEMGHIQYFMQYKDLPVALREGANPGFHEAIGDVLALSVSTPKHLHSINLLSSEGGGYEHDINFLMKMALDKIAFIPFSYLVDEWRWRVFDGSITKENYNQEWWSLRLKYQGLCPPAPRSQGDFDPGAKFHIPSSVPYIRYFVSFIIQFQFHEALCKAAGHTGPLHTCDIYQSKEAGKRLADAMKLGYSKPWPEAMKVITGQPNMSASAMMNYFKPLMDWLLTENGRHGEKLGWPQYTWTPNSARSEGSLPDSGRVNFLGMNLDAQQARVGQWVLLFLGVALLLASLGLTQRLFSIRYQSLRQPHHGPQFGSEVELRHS", "assay": "ACE inhibition assay with HHL substrate (Hayakari method)", "format": "biochemical", "conditions": "rabbit lung ACE; for inhibition at 100 µM: pH 8.3, read-out: Highest ACE-inhibitory value; for IC50: sodium phosphate pH 8.3, 37 °C, 10 min pre-incubation, 45 min reaction, absorbance 382 nm, non-linear fit, triplicate, read-out: IC50 against ACE", "description": "Inhibitory activities of peptides PepTry and PepChy and BTCI against ACE were performed according to Hayakari, et al. (1978) using the synthetic substrate hippuryl-L-histidyl-L-leucine (HHL)[71]. Briefly, ACE stock solution was obtained from rabbit lung in 10 mM sodium phosphate buffer, pH 8.3, and BTCI and peptides stock solutions were prepared in MilliQ water (m/v). Concentration of BTCI was estimated from spectrophotometric absorbance at 280 nm based A2801% = 8.23. Concentration of PepTry and PepChy were estimated according to Eq. 1. BTCI and peptides were diluted in 10 mM sodium phosphate buffer pH 8.3 to obtain concentrations ranging from 0 to 600 µM. Ten µL peptide solutions were pre-incubated with 10 µL of ACE containing 0.5 M NaCl at 37 °C for 10 min. […] The enzymatic reaction was terminated by adding a mixture containing 550 µL of 100 mM sodium phosphate pH 8.3 and 332.5 µL of 3% (m/v) 2,4,6-trichloro-s-triazine (TT) (in dioxane). The mixture was incubated for 5 min. at room temperature and then centrifuged at 1000 g for 10 min at 4 °C. The absorbance values of supernatants containing hippuric acid liberated from HHL were recorded at 382 nm using the Jasco Spectrophotometer V-530 (Jasco Analytical Instruments, Tokyo, Japan). IC50 values for peptides and BTCI were calculated from nonlinear regression curve of ACE residual activity (%) versus inhibitor concentration (µM) (BTCI, PepTry and PepChy) using Origin software (OriginLab Corporation, USA). The control was prepared containing only the substrate without enzyme solution. Assays were performed in triplicate."}, "trypsin [3]": {"biological_target": "T3, trypsin (Bos taurus, UniProt P00760)", "T3 sequence (P00760 24-246)": "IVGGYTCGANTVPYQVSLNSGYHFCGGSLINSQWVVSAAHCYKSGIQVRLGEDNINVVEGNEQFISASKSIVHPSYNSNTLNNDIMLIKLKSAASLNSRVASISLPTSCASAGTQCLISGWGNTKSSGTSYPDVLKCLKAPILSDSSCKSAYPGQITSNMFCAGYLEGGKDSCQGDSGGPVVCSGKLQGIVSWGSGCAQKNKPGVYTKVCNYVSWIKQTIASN", "assay": "Inhibition of trypsin, residual activity with BAPNA substrate", "format": "biochemical", "conditions": "pH 8.2, from fitted inhibition curves (GRAFIT), read-out: Inhibition constant Ki against trypsin", "description": "as §1"}, "chymotrypsin [4]": {"biological_target": "T1, chymotrypsin", "conditions": "literature value; read-out: Inhibition constant Ki against chymotrypsin; cited from earlier work", "description": "(§2) The inhibitory activities of BTCI and its derived peptides, PepTry and PepChy, were evaluated through the residual enzymatic activity of serine proteases trypsin and chymotrypsin in the presence of increasing concentrations of BTCI and its derived peptides (Fig. 2A–D). In the absence of BTCI and peptides, the proteases cleave BAPNA/GPNA substrates releasing the yellow-colored p-nitroanilide product corresponding to an enzymatic activity of 100%[39]. In the presence of BTCI and peptides, a gradual decay of the protease activities is observed. BTCI at approximately 6 µM and 40 µM inhibits trypsi ..."}, "trypsin [5]": {"biological_target": "T3, trypsin", "conditions": "literature value; read-out: Inhibition constant Ki against trypsin; cited from earlier work", "description": "as §2"}}, "note": "Where two headings read alike, the source gives them in different places. Where a SMILES comes first, the peptide text is derived from it. Bridges are numbered along the chain shown (N, C = ends).", "data": [{"molecule": "CC[C@H](C)[C@@H]1NC(=O)[C@H](CO)NC(=O)[C@H](Cc2ccccc2)NC(=O)[C@H]([C@@H](C)O)NC(=O)[C@@H](N)CSSC[C@@H](C(=O)O)NC(=O)[C@H](CCC(N)=O)NC(=O)[C@H](C)NC(=O)[C@@H]2CCCN2C1=O", "note": "[PepChy] (H-CTFSIPAQC-OH; disulfide 1-9)", "values": [{"measurement": "Ki", "setting": "chymotrypsin [1]", "value": 121, "unit": "µM"}, {"measurement": "inhibition at 100 µM", "setting": "[2]", "value": "~98", "unit": "%"}, {"measurement": "IC50", "setting": "[2]", "value": "24.7 ± 1.1", "unit": "µM"}]}, {"molecule": "CC[C@H](C)[C@@H]1NC(=O)[C@H](CO)NC(=O)[C@H](CCCCN)NC(=O)[C@H]([C@@H](C)O)NC(=O)[C@@H](N)CSSC[C@@H](C(=O)O)NC(=O)[C@H](CCC(N)=O)NC(=O)[C@@H]2CCCN2C(=O)[C@@H]2CCCN2C1=O", "note": "[PepTry] (H-CTKSIPPQC-OH; disulfide 1-9)", "values": [{"measurement": "Ki", "setting": "trypsin [3]", "value": 0.119, "unit": "µM"}, {"measurement": "inhibition at 100 µM", "setting": "[2]", "value": "~98", "unit": "%"}, {"measurement": "IC50", "setting": "[2]", "value": "24.4 ± 1.1", "unit": "µM"}]}, {"molecule": "BTCI: Bowman-Birk protease inhibitor purified from Vigna unguiculata (Cowpea) seeds; small protein, 9071 Da, seven disulfide bonds", "values": [{"measurement": "Ki", "setting": "chymotrypsin [4]", "value": 0.115, "unit": "µM"}]}, {"molecule": "BTCI: Bowman-Birk protease inhibitor purified from Vigna unguiculata (Cowpea) seeds; small protein, 9071 Da, seven disulfide bonds (protein, seven intramolecular disulfide bonds; native protein purified from seeds (9071.6 Da)) SGHHEDSTDEASESSKPCCDRCECTKSIPPQCRCSDVRLNSCHSACKSCACTFSIPAQCFCGDINDFCYKPCKSSHSDDDDWN", "values": [{"measurement": "Ki", "setting": "trypsin [5]", "value": 0.0059, "unit": "µM"}, {"measurement": "IC50", "setting": "[2]", "value": "54.6 ± 2.9", "unit": "µM"}]}]}
